Measured values reported in ChEMBL document CHEMBL2424531, “Molecular docking- and genetic algorithm-based approaches to produce robust 3D-QSAR models” (Med Chem Res, 2013).

Experiment: Inhibition of glycogen phosphorylase b (unknown origin)
Parameters: species or system Homo sapiens

**Q.** With `[N-]=[N+]=NC[C@]1(O)O[C@H](CO)[C@@H](O)[C@H](O)[C@H]1O` as the compound, how does the Ki read?
**A.** 7.4 mM

**Q.** Which Ki does the source give for `O=C(NCCO)[C@@H]1O[C@H](CO)[C@@H](O)[C@H](O)[C@H]1O` here?
**A.** 2.6 mM

**Q.** For `C[C@H]1O[C@H](CO)[C@@H](O)[C@H](O)[C@H]1O`, which Ki is on record?
**A.** 53.1 mM

**Q.** Which Ki does the source give for `OC[C@H]1S[C@H](O)[C@H](O)[C@@H](O)[C@@H]1O` here?
**A.** 2 mM

**Q.** Which Ki does the source give for `O=C(NCC(F)(F)F)[C@@H]1O[C@H](CO)[C@@H](O)[C@H](O)[C@H]1O` here?
**A.** 8.1 mM

**Q.** For `OC[C@H]1O[C@H](CO)[C@@H](O)[C@H](O)[C@H]1O`, which Ki is on record?
**A.** 1.5 mM

**Q.** Which Ki does the source give for `CCC(=O)NC1O[C@H](CO)[C@@H](O)[C@H](O)[C@H]1O` (single isomer, unassigned) here?
**A.** 0.039 mM

**Q.** Which Ki does the source give for `NCC[C@@H]1O[C@H](CO)[C@@H](O)[C@H](O)[C@H]1O` here?
**A.** 4.5 mM

**Q.** With `N#CC[C@@H]1O[C@H](CO)[C@@H](O)[C@H](O)[C@H]1O` as the compound, how does the Ki read?
**A.** 9 mM

**Q.** With `O=C(NC1O[C@H](CO)[C@@H](O)[C@H](O)[C@H]1O)c1ccccc1` (single isomer, unassigned) as the compound, how does the Ki read?
**A.** 0.081 mM

**Q.** For `O=C(CSC1O[C@H](CO)[C@@H](O)[C@H](O)[C@H]1O)Nc1ccc(F)cc1F` (single isomer, unassigned), which Ki is on record?
**A.** 18.9 mM

**Q.** Which Ki does the source give for `NC(=O)CSC1O[C@H](CO)[C@@H](O)[C@H](O)[C@H]1O` (single isomer, unassigned) here?
**A.** 21.1 mM

**Q.** With `COC(=O)N[C@@H]1O[C@H](CO)[C@@H](O)[C@H](O)[C@H]1O` as the compound, how does the Ki read?
**A.** 0.085 mM

**Q.** Which Ki does the source give for `NC(=O)[C@H]1O[C@H](CO)[C@@H](O)[C@H](O)[C@H]1O` here?
**A.** 0.37 mM

**Q.** With `O=C(NC1CC1)[C@@H]1O[C@H](CO)[C@@H](O)[C@H](O)[C@H]1O` as the compound, how does the Ki read?
**A.** 1.3 mM

**Q.** For `NC[C@@H]1O[C@H](CO)[C@@H](O)[C@H](O)[C@H]1O`, which Ki is on record?
**A.** 16.8 mM

**Q.** For `O=C(CCl)NC1O[C@H](CO)[C@@H](O)[C@H](O)[C@H]1O` (single isomer, unassigned), which Ki is on record?
**A.** 0.045 mM

**Q.** Which Ki does the source give for `O=C1CNC(=O)C2(N1)O[C@H](CO)[C@@H](O)[C@H](O)[C@H]2O` (stereo partly specified) here?
**A.** 0.0597 mM

**Q.** Which Ki does the source give for `NC(=O)[C@@H]1O[C@H](CO)[C@@H](O)[C@H](O)[C@H]1O` here?
**A.** 0.44 mM

**Q.** With `CCCC(=O)NC1O[C@H](CO)[C@@H](O)[C@H](O)[C@H]1O` (single isomer, unassigned) as the compound, how does the Ki read?
**A.** 0.094 mM

**Q.** With `CS(=O)(=O)OC[C@]1(O)O[C@H](CO)[C@@H](O)[C@H](O)[C@H]1O` as the compound, how does the Ki read?
**A.** 3.7 mM

**Q.** Which Ki does the source give for `CC(=O)NCC(=O)NC1O[C@H](CO)[C@@H](O)[C@H](O)[C@H]1O` (single isomer, unassigned) here?
**A.** 0.99 mM

**Q.** Which Ki does the source give for `O=C(NCc1ccc(F)cc1F)[C@H]1O[C@H](CO)[C@@H](O)[C@H](O)[C@H]1O` here?
**A.** 27.2 mM

**Q.** With `O=C(Nc1ccc(O)cc1)[C@@H]1O[C@H](CO)[C@@H](O)[C@H](O)[C@H]1O` as the compound, how does the Ki read?
**A.** 4.4 mM

**Q.** With `OC[C@H]1O[C@@H](S)[C@H](O)[C@@H](O)[C@@H]1O` as the compound, how does the Ki read?
**A.** 1 mM

**Q.** For `CNC(=O)[C@H]1O[C@H](CO)[C@@H](O)[C@H](O)[C@H]1O`, which Ki is on record?
**A.** 36.7 mM

**Q.** With `CS(=O)(=O)OC[C@@H]1O[C@H](CO)[C@@H](O)[C@H](O)[C@H]1O` as the compound, how does the Ki read?
**A.** 4.8 mM

**Q.** For `O=C(NCCO)[C@H]1O[C@H](CO)[C@@H](O)[C@H](O)[C@H]1O`, which Ki is on record?
**A.** 16.9 mM

**Q.** Which Ki does the source give for `CNC(=O)[C@@H]1O[C@H](CO)[C@@H](O)[C@H](O)[C@H]1O` here?
**A.** 0.16 mM

**Q.** For `O=C(Nc1ccccc1)[C@H]1O[C@H](CO)[C@@H](O)[C@H](O)[C@H]1O`, which Ki is on record?
**A.** 12.6 mM

**Q.** Which Ki does the source give for `O=C(CSC1O[C@H](CO)[C@@H](O)[C@H](O)[C@H]1O)Nc1ccccc1` (single isomer, unassigned) here?
**A.** 3.6 mM

**Q.** With `N#CC[C@]1(O)O[C@H](CO)[C@@H](O)[C@H](O)[C@H]1O` as the compound, how does the Ki read?
**A.** 7.6 mM

**Q.** Which Ki does the source give for `COC(=O)[C@@H]1O[C@H](CO)[C@@H](O)[C@H](O)[C@H]1O` here?
**A.** 2.8 mM

**Q.** Which Ki does the source give for `COC(=O)N[C@]1(C(N)=O)O[C@H](CO)[C@@H](O)[C@H](O)[C@H]1O` here?
**A.** 0.016 mM

**Q.** Which Ki does the source give for `NC[C@H]1O[C@H](CO)[C@@H](O)[C@H](O)[C@H]1O` here?
**A.** 34.5 mM

**Q.** Which Ki does the source give for `O=C(CBr)N[C@@H]1O[C@H](CO)[C@@H](O)[C@H](O)[C@H]1O` here?
**A.** 0.044 mM

**Q.** Which Ki does the source give for `NNC(=O)[C@@H]1O[C@H](CO)[C@@H](O)[C@H](O)[C@H]1O` here?
**A.** 0.4 mM

**Q.** Which Ki does the source give for `NN1C(=O)NC2(O[C@H](CO)[C@@H](O)[C@H](O)[C@H]2O)C1=O` (stereo partly specified) here?
**A.** 0.146 mM

**Q.** With `OC[C@H]1O[C@@](O)(CO)[C@H](O)[C@@H](O)[C@@H]1O` as the compound, how does the Ki read?
**A.** 15.8 mM

**Q.** For `O=C(O)[C@H]1O[C@H](CO)[C@@H](O)[C@H](O)[C@H]1O`, which Ki is on record?
**A.** 15.2 mM

**Q.** Which Ki does the source give for `CC(=O)NC1O[C@H](CO)[C@@H](O)[C@H](O)[C@H]1O` (single isomer, unassigned) here?
**A.** 0.032 mM

**Q.** Which Ki does the source give for `O=C(Nc1ccc(O)cc1)[C@H]1O[C@H](CO)[C@@H](O)[C@H](O)[C@H]1O` here?
**A.** 5.6 mM

**Q.** With `COC(=O)[C@H]1O[C@H](CO)[C@@H](O)[C@H](O)[C@H]1O` as the compound, how does the Ki read?
**A.** 24.2 mM

**Q.** For `[N-]=[N+]=NC[C@H]1O[C@H](CO)[C@@H](O)[C@H](O)[C@H]1O`, which Ki is on record?
**A.** 22.4 mM

**Q.** With `CO[C@@H]1O[C@H](CO)[C@@H](O)[C@H](O)[C@H]1O` as the compound, how does the Ki read?
**A.** 24.7 mM

**Q.** For `NNC(=O)[C@H]1O[C@H](CO)[C@@H](O)[C@H](O)[C@H]1O`, which Ki is on record?
**A.** 3 mM

**Q.** With `O=C(Nc1ccccc1)[C@@H]1O[C@H](CO)[C@@H](O)[C@H](O)[C@H]1O` as the compound, how does the Ki read?
**A.** 5.4 mM

**Q.** Which Ki does the source give for `OC[C@H]1O[C@@H](Oc2cc3ccccc3[nH]2)[C@H](O)[C@@H](O)[C@@H]1O` here?
**A.** 2.6 mM

**Q.** With `NCC(=O)N[C@@H]1O[C@H](CO)[C@@H](O)[C@H](O)[C@H]1O` as the compound, how does the Ki read?
**A.** 0.37 mM

**Q.** With `NC(=O)NC1O[C@H](CO)[C@@H](O)[C@H](O)[C@H]1O` (single isomer, unassigned) as the compound, how does the Ki read?
**A.** 0.14 mM

**Q.** Which Ki does the source give for `CNNC(=O)C1O[C@H](CO)[C@@H](O)[C@H](O)[C@H]1O` (single isomer, unassigned) here?
**A.** 1.8 mM
